Measurements reported in BindingDB's records for doi:10.1021/bi200655g (Glaxosmithkline, 2011).

Biological target: T1, Peptide deformylase (Streptococcus pneumoniae (strain ATCC BAA-255 / R6), UniProt Q8DP79)
T1 sequence (Q8DP79 whole entry): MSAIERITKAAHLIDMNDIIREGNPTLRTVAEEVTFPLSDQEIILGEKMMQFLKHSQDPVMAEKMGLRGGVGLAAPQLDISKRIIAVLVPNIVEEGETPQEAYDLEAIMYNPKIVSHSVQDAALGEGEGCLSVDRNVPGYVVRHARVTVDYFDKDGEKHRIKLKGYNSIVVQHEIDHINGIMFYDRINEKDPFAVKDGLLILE
Assay: Binding Assay
Text: Binding assay using PDF inhibitors.

Compound | Ki
CCCCC[C@H](CN(O)C=O)C(=O)NNc1nccc(C(F)(F)F)n1 [PDF inhibitor, compound 1] | 6.31 µM
CNC(=O)c1cccc(C)c1Nc1nc(N2CCN(c3ccccc3Cl)CC2)nc(N2CSC[C@H]2C(=O)NCC(=O)NO)n1 [PDF inhibitor, compound 2] | 0.334 µM
O=CC(O)CCNC(=O)c1cccc(Cl)c1Cl (stereo unspecified) [PDF inhibitor, compound 4] | 25.9 µM
CNC(=O)c1cccc(C)c1Nc1nc(N2CCN(c3ccccc3Cl)CC2)nc(N2CSC[C@H]2COCC(=O)NO)n1 [PDF inhibitor, compound 6] | 0.213 µM
Cc1ccccc1Nc1nc(N2CCN(c3ccccc3Cl)CC2)nc(N2CSC[C@H]2C(=O)NCC(=O)NO)n1 [PDF inhibitor, compound 7] | 0.65 µM
Cc1ccccc1Nc1nc(N2CCN(c3ccccc3Cl)CC2)nc(N2CSC[C@H]2COCC(=O)NO)n1 [PDF inhibitor, compound 8] | 0.0537 µM
